The results in this text go back to patent publication US8293788B2, “2-phenylpropionic acid derivatives and pharmaceutical compositions containing them” (priority 2004, dated 2012).

The structures appear in SMILES notation.

The test system of data set [1] is human PMNs chemotaxis induced by IL-8. In words: IL-8 induced PMN chemotaxis assay. In kind it is cell-based. The note with it: compound at 10^−9M, read-out: PMN migration by IL-8 % of inhibition (10^−9M). How it is done:
(§1) The compounds of the invention of formula (I) were evaluated in vitro for their ability to inhibit chemotaxis of polymorphonucleate leukocytes (hereinafter referred to as PMNs) and monocytes induced by the fractions of IL-8 and GRO-α and C5a. For this purpose, in order to isolate the PMNs from heparinized human blood, taken from healthy adult volunteers, mononucleates were removed by means of sedimentation on dextran (according to the procedure disclosed by W. I. Ming et al., J. Immunol., 138, 1469, 1987) and red blood cells by a hypotonic solution. The cell vitality was calculated by exclusion with Trypan blue, whilst the ratio of the circulating polymorphonucleates was estimated on the cytocentrifugate after staining with Diff Quick.
In the IL-8 induced chemotaxis assay human recombinant IL-8 (Pepro Tech) was used as stimulating agents in the chemotaxis experiments: the lyophilized protein was dissolved in a volume of HBSS containing 0.2% bovin serum albumin (BSA) so thus to obtain a stock solution having a concentration of 10^−5 M to be diluted in HBSS to a concentration of 10^−9 M, for the chemotaxis assays.
(§2) In the chemotaxis experiments, the PMNs were incubated with the compounds of the invention of formula (I) for 15′ at 37° C. in an atmosphere containing 5% CO2.
(§3) During the chemotaxis assay (according to W. Falket et al., J. Immunol. Methods, 33, 239, 1980) PVP-free filters with a porosity of 5 μm and microchambers suitable for replication were used.
(§4) The compounds of the invention in formula (I) were evaluated at a concentration ranging between 10^−6 and 10^−10 M; for this purpose they were added, at the same concentration, both to the lower pores and the upper pores of the microchamber. Evaluation of the ability of the compounds of the invention of formula (I) to inhibit the chemotaxis of human monocytes was carried out according to the method disclosed by Van Damme J. et al. (Eur. J. Immunol., 19, 2367, 1989).

Data set [2] is described as follows: Protein binding in rat plasma (ultrafiltration). In kind it is in vitro ADME. The note with it: 37° C. How it is done:
Protein Binding was determined as follows: Duplicate rat plasma samples of each compound at 50 μg/mL concentration were incubated at 37° C. for 20 minutes under gentle shaking. Then samples were ultrafiltrated through Centrifree® micropartition devices by centrifugation at 1500 g for 15 minutes. The ultrafiltrate was subjected to HPLC-MS/MS quantitative analysis (Column Luna C18, 150×2 mm ID 5 μm (Phenomenex), mobile phase: eluent A) 0.02M HCOO^−NH4^+ (pH 4.3 with HCOOH); eluent B) CH3OH).

Data set [3] deals with GRO-α induced PMN chemotaxis. Description: GRO-α induced PMN chemotaxis assay. Particulars: human PMNs; for inhibition at 0.01 µM: compound at 10^−8M, read-out: PMN migration by GROα % of inhibition (10^−8M); for PMN migration by GROα % of inhibition: tested at 10^−6M. In kind it is cell-based. The method, then:
as §1
GRO-α induced chemotaxis inhibition was evaluated in an analogous assay.
as §2, §3, §4

In data set [4] the test system is C5a induced PMNs chemotaxis. Description: C5a induced PMN chemotaxis assay. Format: cell-based. Particulars: human PMNs; for PMN migration by C5a % of inhibition: tested at 10^−6M; for inhibition at 0.01 µM: compound at 10^−8M, read-out: PMN migration by C5a % of inhibition (10^−8M). How it is done:
as §1
In the C5a induced chemotaxis essay the fractions hrC5a and hrC5a-desArg (Sigma) were used as stimulating agents in chemotaxis experiments, obtaining practically identical results, Lyophilized C5a was dissolved in a volume of HBSS containing 0.2% BSA so as to obtain a stock solution having a concentration of 10^−5 M, to be diluted in HBSS to a concentration of 10^−9 M, for the chemotaxis assays.
as §2
The chemotactic activity of the C5a was evaluated on human circulating polymorphonucleates (PMNs) resuspended in HBSS at a concentration of 1.5×10^6 PMNs per ml.
as §3, §4

Data set [5] is described as follows: Pharmacokinetic profile in male mice after intravenous and oral administration. Format: in vivo. Particulars: mouse, plasma; for bioavailability: intravenous and oral administration. The method, then:
The pharmacokinetic profile (t1/2, oral bioavailability, etc) of claimed compounds was evaluated in male mice after intravenous and oral administration. The pharmacokinetic analysis was performed using compounds plasmatic concentrations at different times. The data were evaluated by Kinetica 2000™, Version 3.0 Software [InnaPhase Corporation, World headquarters, 1700 Race Street, Philadelphia, Pa. 19103 USA].

The term fraction unbound denotes free concentration divided by total concentration. High values mean weak binding, low ones extensive binding. Broadly, the half-life is the time needed for the level to fall by half in the phase considered. Read a high half-life as slow loss. Usually bioavailability stands for the share of a dose that reaches the circulation, judged against a reference dose that is usually intravenous. As to `CC(C)Cc1ccc([C@@H](C)C(=O)NS(C)(=O)=O)cc1` [reference compound], in data set [1], the inhibition at 0.001 µM stood at 50 ± 12%. The compound also gave a fraction unbound at 20 min, 50 μg/mL in data set [2] of 0.0002. Further, the inhibition at 0.01 µM in data set [3] is 10 ± 18%. The “PMN migration by C5a % of inhibition” value in data set [4] is on record as “Inactive^#”. In data set [5], this compound had a half-life of 0.4 h and a bioavailability of 80%.

On to `CC(C)Cc1ccc([C@@H](C)C(=O)NCCCN2CCCCC2)cc1` [reference compound], for which the inhibition at 0.001 µM in data set [1] was determined as 44 ± 5%. This compound gave a free fraction (fraction unbound) at 20 min, 50 μg/mL in data set [2] of 0.15. In addition, the inhibition at 0.01 µM in data set [3] worked out at 39 ± 10%. Moreover, the inhibition at 0.01 µM in data set [4] was determined as 55 ± 6%. Further, in data set [5], the half-life was 1.7 h and the bioavailability turned out to be 30%.

In the case of `C[C@@H](C(=O)NCCCN1CCCC1)c1ccc(OS(=O)(=O)C(F)(F)F)cc1.Cl`, in data set [1], the inhibition at 0.001 µM amounted to 51 ± 13%. This compound showed a fraction unbound at 20 min, 50 μg/mL in data set [2] of 0.359. For the same compound, the “PMN migration by GROα % of inhibition” value in data set [3] is listed as “Inactive^#”. Further, the inhibition at 0.01 µM in data set [4] was determined as 67 ± 10%. In data set [5], this compound had a half-life of 2.4 h and a bioavailability of 90%.

As to `C[C@@H](C(=O)[N-]S(C)(=O)=O)c1ccc(OS(=O)(=O)C(F)(F)F)cc1.[Na+]`, the inhibition at 0.001 µM in data set [1] turned out to be 58 ± 9%. In data set [2], this compound came in with a fraction unbound at 20 min, 50 μg/mL of 0.01. For the same compound, the inhibition at 0.01 µM in data set [3] is 61 ± 6%. Further, the “PMN migration by C5a % of inhibition” value in data set [4] is “Inactive^#”. In addition, in data set [5], the half-life was 24.7 h and the bioavailability is roughly 100%.

Regarding `C[C@@H](C(=O)NCCN1CCCC1)c1ccc(OS(=O)(=O)C(F)(F)F)cc1.Cl`, the inhibition at 0.001 µM in data set [1] is 52 ± 12%. In data set [2], the fraction unbound at 20 min, 50 μg/mL is 0.296. Further, the “PMN migration by GROα % of inhibition” value in data set [3] was “Inactive^#”. The inhibition at 0.01 µM in data set [4] is 65 ± 18%. In data set [5], this compound showed a half-life of 3.4 h and a bioavailability of 80%.

Take `C[C@@H](C(N)=O)c1ccc(OS(=O)(=O)C(F)(F)F)cc1`: the inhibition at 0.001 µM in data set [1] was 64 ± 2%. The same compound had a fraction unbound at 20 min, 50 μg/mL in data set [2] of 0.062. In data set [3], the inhibition at 0.01 µM was 61 ± 3%. In addition, in data set [4], the “PMN migration by C5a % of inhibition” value was “Inactive^#”. For the same compound, in data set [5], the half-life was 2.3 h and the bioavailability stood at 95%.

With `CC(C)Cc1ccc([C@@H](C)C(N)=O)cc1` [reference compound], the inhibition at 0.001 µM in data set [1] is 57 ± 12%. The compound further gave a fraction unbound at 20 min, 50 μg/mL in data set [2] of 0.016. In data set [3], the inhibition at 0.01 µM was 10 ± 7%. The “PMN migration by C5a % of inhibition” value in data set [4] is on record as “Inactive^#”. In data set [5], this compound showed a half-life of 0.4 h and a bioavailability of 35%.
